{
  "source": "patent US11433090B2",
  "about": "“mTOR-inhibitor-containing medicine for treating or preventing ophthalmic symptoms, disorders, or diseases, and application thereof” (The Doshisha, priority 2017, dated 2022)",
  "test_system": "mTOR",
  "test": "mTOR expression at RNA level in iFECD (PCR, agarose gel electrophoresis)",
  "format": "cell-based, human",
  "conditions": "3 pmol mTOR siRNA, FIG. 6",
  "protocol": "The medium was removed from a culture dish in which iFECDs were being cultured, and the cells were supplemented with 1×PBS (−) that was preheated to 37° C., and were washed. This was repeated twice. The cells were supplemented again with 1×PBS (−) and incubated for 3 minutes at 37° C. (5% CO2). After removing the PBS (−), the cells were supplemented with 0.05% Trypsin-EDTA (Nacalai Tesque, 32778-34) and incubated for 5 minutes at 37° C. (5% CO2). The cells were then suspended in a medium, and collected by centrifugation at 1500 rpm for 3 minutes. DMEM (Nacalai Tesque, 08456-36)+10% FBS (Biowest, S1820-500)+1% P/S (Nacalai Tesque, 26252-94) was used as the medium.\niFECDs were seeded on a 12-well plate at a ratio of 3×10^4 cells per well and cultured for 24 hours at 37° C. (5% CO2) (medium: DMEM+10% FBS+1% P/S). After 24 hours, the medium was removed. Lipofectamine (invitrogen, 92008) and 3 pmol of mTOR siRNA (Ambion, AS026M0L) were added to culture the cells for 24 hours (medium: OptiMEM-I (invitrogen, 31985-088)). The mTOR siRNA that was used has a sense strand set forth in SEQ ID NO: 1 and an antisense strand set forth in SEQ ID NO: 2. After 24 hours, the medium was removed to culture the cells for 72 hours at 37° C. (5% CO2) (medium: DMEM+10% FBS+1% P/S). After 72 hours, the medium was removed. […]",
  "data": [
    {"substance": "mTOR siRNA: siRNA against mTOR gene (Ambion, AS026M0L); sense strand SEQ ID NO: 1, antisense strand SEQ ID NO: 2 (sense CAUUCGCAUUCAGUCCAUATT; antisense UAUGGACUGAAUGCGAAUGAT; chemistry not given here)", "values": [
      {"measurement": "mTOR expression, RNA level (PCR)", "value": "suppression was found"}
    ]}
  ]
}
